Assay results as given in US6692695B1, “Industrial scale barrier technology for preservation of sensitive biological materials” (Quadrant Drug Delivery Limited, priority 1999, dated 2004).

Key:
[1] = Potency of Amphotericin after foam drying and storage
Experimental: (8) Freeze-dried samples of Amphotericin B were rehydrated with 5 ml 40 wt % sucrose per vial. Then the solutions were transferred into 50 ml sterilized glass vials for future preservation by drying. Before drying, the vials were covered with gray butyl slotted rubber stoppers. The vials were dried inside a vacuum chamber. The vials were placed on the surface of a stainless steel shelf inside the chamber. The shelf temperature was controlled by circulating ethylene glycol/water antifreeze at a controlled temperature inside the shelf. Before the vacuum was applied the shelf temperature was decreased to 5° C. The hydrostatic pressure inside the chamber was decreased to 0.5 Torr. Under such conditions the suspension boiled for 30 min. The temperature of the shelf was then slowly (during 30 min) increased to 25° C. Visually, stable dry foams were formed inside the vials under these experimental conditions within 3 hours. After an additional 12 hours of drying at room temperature, the chamber was filled with the dry N2 gas and the rubber stoppers in a portion of the vials were pushed down. The vials were removed from the chamber and subsequently sealed with aluminum crimped seal. The samples were assayed immediately after drying and after 30 days of storage at 27.5° and 40° C. The results are shown in Table 1, together with the results obtained in the next experiment.
Another set of freeze-dried samples of Amphotericin B was rehydrated with 5 ml 40 wt % sucrose per vial. The solutions were then transferred into sterilized glass vials for future preservation by drying similar to that described above with additional drying at 45° C. for additional 24 hours. After that, the chamber was filled again with the dry N2 gas, the rubber stoppers were pushed down and the vials were sealed. The samples were assayed right after drying and after 30 day of storage at 27.5° and 40° C.

[2] = Glass transition temperature of foam-dried sucrose particles; format: physicochemical
Experimental: (1) In the first test, the equipment set-up consisted of a 4.5 inch internal diameter glass tube connected to a standard Virtis SL600 Unitop condenser section and heated via two laboratory style hot plates from Coming. The opposite end of the glass tube was closed. A 200 ml solution of sucrose 50% (w/w) in de-ionized water was introduced to a 2 L PET beverage bottle, commonly used for soft drinks. This would be considered to be a semi-rigid container. The bottle was placed in the tube and the sucrose solution was preserved by foam formation. After mechanically stable foam was formed, the bottle containing the foam was held overnight at 0.3 Torr and 25° C. The next morning the vacuum was broken with air. Total process time was 23 hours. Immediately following tube disassembly, the bottle was removed from the tube and purged with dry nitrogen for approximately one minute. The bottle was capped with the accompanying plastic screw top. The foam appeared to completely fill the bottle. […] Next the bottle was struck against the laboratory counter about 8-10 times with light-moderate force. All of the foam inside broke apart into discreet particles with the visual and flow characteristics of sand. A small amount of material remained adhering to the bottle interior. The glass transition temperature of the coarse particulate material was 18° C.
(2) In a second test, the glass tube used in the first test was replaced with a jacketed glass tube. The jacket was filled with water and connected to a recirculating heater bath. The bottle used previously was replaced with a 1-gallon capacity polyethylene plastic storage bag, commonly available in supermarkets. This would be considered to be a flexible container. The bag was taped in place to a plastic holder to keep the bag open. The bag was filled with 150 ml of 50% (w/w) sucrose in de-ionized water. Primary foam drying was essentially completed 90 minutes later and the heating source switched to hot plates. Conditions at that point were 31° C. and 0.1 5 Torr. The foam was then held overnight. […]

[3] = Urokinase activity after foam drying and storage
Experimental: (7) Freeze-dried samples of Urokinase were rehydrated with 2 ml of 40 wt % sucrose. The solutions were then transferred to 20 ml sterilized glass vials for future preservation by drying. Before drying, the vials were covered with gray slotted rubber stoppers. The vials were dried inside a vacuum chamber. The vials were sitting on the surface of a stainless steel shelf inside the chamber. The shelf temperature was controlled by circulating ethylene glycol/water antifreeze at a controlled temperature inside the shelf. Before the vacuum was applied the shelf temperature was decreased to 5° C. Then the hydrostatic pressure inside the chamber was decreased to 0.5 Torr. Under such conditions, the suspension boiled for 30 min. […] Visually, under these experimental conditions, stable dry foams were formed inside the vials within 3 hours. After an additional 12 hours of drying at room temperature, the temperature was increased to 45° C. and maintained for an additional 24 hours. After that the chamber was filled with dry N2 gas, the rubber stoppers were pushed down and the vials were sealed with aluminum crimp seals.
The samples were assayed immediately after drying and after 30 days of storage at 40° C. After drying the Urokinase, activity was 93% of the initial activity. […]

## C[C@@H]1[C@H](O)[C@@H](C)/C=C/C=C/C=C/C=C/C=C/C=C/C=C/[C@H](O[C@@H]2O[C@H](C)[C@@H](O)[C@H](N)[C@@H]2O)C[C@@H]2O[C@](O)(C[C@@H](O)C[C@@H](O)[C@H](O)CC[C@@H](O)C[C@@H](O)CC(=O)O[C@H]1C)C[C@H](O)[C@H]2C(=O)O [Amphotericin, Amphotericin B]
[1]; Control
  Potency of Amphotericin (%): 126%
[1]; Td = 25° C.
  Potency of Amphotericin (%) After 30 days at 27.5° C.: 114%
  Potency of Amphotericin (%) After 30 days at 40° C.: 95%
  Potency of Amphotericin (%) After drying: 108%
[1]; Td = 45° C.
  Potency of Amphotericin (%) After 30 days at 27.5° C.: 102%
  Potency of Amphotericin (%) After 30 days at 40° C.: 104%
  Potency of Amphotericin (%) After drying: 103%

## OC[C@H]1O[C@@](CO)(O[C@H]2O[C@H](CO)[C@@H](O)[C@H](O)[C@H]2O)[C@@H](O)[C@@H]1O [sucrose]
[2]; 150 ml 50% (w/w) in 1-gallon polyethylene bag, 31° C., total 71 hours
  glass transition temperature: 18.33 °C
[2]; 200 ml 50% (w/w) in 2 L PET bottle, held overnight at 0.3 Torr and 25° C., total 23 hours
  glass transition temperature: 18 °C
[2]; 300 ml 50% (w/w) in larger bag, up to 55° C. and 0.2 Torr, total 23.5 hours
  glass transition temperature: 33.3 °C

## Urokinase
[3]; after 30 days of storage at 40° C.
  activity, % of the initial activity: 90%
[3]; after drying (40 wt % sucrose, up to 45° C.)
  activity, % of the initial activity: 93%
